From US20230017045A1, “PYRIDINE AND PYRIMIDINE CARBOXYLATE HERBICIDES AND METHODS OF USE THEREOF” (Dow AgroSciences LLC, priority 2017, published 2023)

These compounds were tested on test plant species (assay: Post-emergent herbicidal activity test (greenhouse, foliar spray, visual growth reduction)). Settings: post-emergence, 336 h, ALOMY: blackgrass (Alopecurus myosuroides), 140 g ai/ha, 14 days after application, read-out: Visual Growth Reduction (%) 14 Days After Application, ALOMY.
Format: in vivo
How it was run: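 Scoring used a 0 to 100 percent visual scale of growth reduction against solvent-treated controls, read 14 d after spraying. Applications went onto plants at first or second true leaf stage, 187 L/ha, with crop oil concentrate and X-77 surfactant in the carrier. Post-treatment watering was by subirrigation to avoid wash-off.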

| Compound | pest or weed control at 140 g/ha |
| --- | --- |
| COc1c(Cl)ccc(-c2ccc(Cl)c(C(=O)O)n2)c1F [F78, 3-chloro-6-(4-chloro-2-fluoro-3-methoxyphenyl)picolinic acid] | 0 to 29% |
| COC(=O)c1nc(-c2ccc(C(F)(F)F)cc2Cl)ccc1F [F113, methyl 6-(2-chloro-4-(trifluoromethyl)phenyl)-3-fluoropicolinate] | 0 to 29% |
| COC(=O)c1cc(Cl)cc(-c2ccc(C(F)(F)F)cc2Cl)n1 [F57, Methyl 4-chloro-6-(2-chloro-4-(trifluoromethyl)phenyl)picolinate] | 0 to 29% |

Same assay, conditions: post-emergence, 336 h, AMARE: redroot pigweed (Amaranthus retroflexus), 140 g ai/ha, 14 days after application, read-out: Visual Growth Reduction (%) 14 Days After Application, AMARE

| Compound | pest or weed control at 140 g/ha |
| --- | --- |
| COc1c(Cl)ccc(-c2ccc(Cl)c(C(=O)O)n2)c1F [F78, 3-chloro-6-(4-chloro-2-fluoro-3-methoxyphenyl)picolinic acid] | 45 to 59% |
| COC(=O)c1nc(-c2ccc(C(F)(F)F)cc2Cl)ccc1F [F113, methyl 6-(2-chloro-4-(trifluoromethyl)phenyl)-3-fluoropicolinate] | 95 to 100% |
| COC(=O)c1cc(Cl)cc(-c2ccc(C(F)(F)F)cc2Cl)n1 [F57, Methyl 4-chloro-6-(2-chloro-4-(trifluoromethyl)phenyl)picolinate] | 0 to 29% |

Same assay, conditions: post-emergence, 336 h, AVEFA: wild oat (Avena fatua), 140 g ai/ha, 14 days after application, read-out: Visual Growth Reduction (%) 14 Days After Application, AVEFA

| Compound | pest or weed control at 140 g/ha |
| --- | --- |
| COc1c(Cl)ccc(-c2ccc(Cl)c(C(=O)O)n2)c1F [F78, 3-chloro-6-(4-chloro-2-fluoro-3-methoxyphenyl)picolinic acid] | 0 to 29% |
| COC(=O)c1nc(-c2ccc(C(F)(F)F)cc2Cl)ccc1F [F113, methyl 6-(2-chloro-4-(trifluoromethyl)phenyl)-3-fluoropicolinate] | 45 to 59% |
| COC(=O)c1cc(Cl)cc(-c2ccc(C(F)(F)F)cc2Cl)n1 [F57, Methyl 4-chloro-6-(2-chloro-4-(trifluoromethyl)phenyl)picolinate] | 0 to 29% |

Same assay, conditions: post-emergence, 336 h, CHEAL: lambsquarters (Chenopodium album), 140 g ai/ha, 14 days after application, read-out: Visual Growth Reduction (%) 14 Days After Application, CHEAL

| Compound | pest or weed control at 140 g/ha |
| --- | --- |
| COc1c(Cl)ccc(-c2ccc(Cl)c(C(=O)O)n2)c1F [F78, 3-chloro-6-(4-chloro-2-fluoro-3-methoxyphenyl)picolinic acid] | 75 to 84% |
| COC(=O)c1nc(-c2ccc(C(F)(F)F)cc2Cl)ccc1F [F113, methyl 6-(2-chloro-4-(trifluoromethyl)phenyl)-3-fluoropicolinate] | 95 to 100% |
| COC(=O)c1cc(Cl)cc(-c2ccc(C(F)(F)F)cc2Cl)n1 [F57, Methyl 4-chloro-6-(2-chloro-4-(trifluoromethyl)phenyl)picolinate] | 0 to 29% |

Same assay, conditions: post-emergence, 336 h, CIRAR: canada thistle (Cirsium arvense), 140 g ai/ha, 14 days after application, read-out: Visual Growth Reduction (%) 14 Days After Application, CIRAR

| Compound | pest or weed control at 140 g/ha |
| --- | --- |
| COc1c(Cl)ccc(-c2ccc(Cl)c(C(=O)O)n2)c1F [F78, 3-chloro-6-(4-chloro-2-fluoro-3-methoxyphenyl)picolinic acid] | 60 to 74% |
| COC(=O)c1nc(-c2ccc(C(F)(F)F)cc2Cl)ccc1F [F113, methyl 6-(2-chloro-4-(trifluoromethyl)phenyl)-3-fluoropicolinate] | 85 to 94% |
| COC(=O)c1cc(Cl)cc(-c2ccc(C(F)(F)F)cc2Cl)n1 [F57, Methyl 4-chloro-6-(2-chloro-4-(trifluoromethyl)phenyl)picolinate] | 0 to 29% |

Same assay, conditions: post-emergence, 336 h, CYPES: yellow nutsedge (Cyperus esculentus), 140 g ai/ha, 14 days after application, read-out: Visual Growth Reduction (%) 14 Days After Application, CYPES

| Compound | pest or weed control at 140 g/ha |
| --- | --- |
| COc1c(Cl)ccc(-c2ccc(Cl)c(C(=O)O)n2)c1F [F78, 3-chloro-6-(4-chloro-2-fluoro-3-methoxyphenyl)picolinic acid] | 0 to 29% |
| COC(=O)c1nc(-c2ccc(C(F)(F)F)cc2Cl)ccc1F [F113, methyl 6-(2-chloro-4-(trifluoromethyl)phenyl)-3-fluoropicolinate] | 0 to 29% |
| COC(=O)c1cc(Cl)cc(-c2ccc(C(F)(F)F)cc2Cl)n1 [F57, Methyl 4-chloro-6-(2-chloro-4-(trifluoromethyl)phenyl)picolinate] | 0 to 29% |

Same assay, conditions: post-emergence, 336 h, DIGSA: crabgrass (Digitaria sanguinalis), 140 g ai/ha, 14 days after application, read-out: Visual Growth Reduction (%) 14 Days After Application, DIGSA

| Compound | pest or weed control at 140 g/ha |
| --- | --- |
| COc1c(Cl)ccc(-c2ccc(Cl)c(C(=O)O)n2)c1F [F78, 3-chloro-6-(4-chloro-2-fluoro-3-methoxyphenyl)picolinic acid] | 0 to 29% |
| COC(=O)c1nc(-c2ccc(C(F)(F)F)cc2Cl)ccc1F [F113, methyl 6-(2-chloro-4-(trifluoromethyl)phenyl)-3-fluoropicolinate] | 85 to 94% |
| COC(=O)c1cc(Cl)cc(-c2ccc(C(F)(F)F)cc2Cl)n1 [F57, Methyl 4-chloro-6-(2-chloro-4-(trifluoromethyl)phenyl)picolinate] | 0 to 29% |

Same assay, conditions: post-emergence, 336 h, ECHCG: barnyardgrass (Echinochloa crus-galli), 140 g ai/ha, 14 days after application, read-out: Visual Growth Reduction (%) 14 Days After Application, ECHCG

| Compound | pest or weed control at 140 g/ha |
| --- | --- |
| COc1c(Cl)ccc(-c2ccc(Cl)c(C(=O)O)n2)c1F [F78, 3-chloro-6-(4-chloro-2-fluoro-3-methoxyphenyl)picolinic acid] | 0 to 29% |
| COC(=O)c1nc(-c2ccc(C(F)(F)F)cc2Cl)ccc1F [F113, methyl 6-(2-chloro-4-(trifluoromethyl)phenyl)-3-fluoropicolinate] | 75 to 84% |
| COC(=O)c1cc(Cl)cc(-c2ccc(C(F)(F)F)cc2Cl)n1 [F57, Methyl 4-chloro-6-(2-chloro-4-(trifluoromethyl)phenyl)picolinate] | 0 to 29% |

Same assay, conditions: post-emergence, 336 h, IPOHE: ivy-leaf morning glory (Ipomoea hederacea), 140 g ai/ha, 14 days after application, read-out: Visual Growth Reduction (%) 14 Days After Application, IPOHE

| Compound | pest or weed control at 140 g/ha |
| --- | --- |
| COc1c(Cl)ccc(-c2ccc(Cl)c(C(=O)O)n2)c1F [F78, 3-chloro-6-(4-chloro-2-fluoro-3-methoxyphenyl)picolinic acid] | 45 to 59% |
| COC(=O)c1nc(-c2ccc(C(F)(F)F)cc2Cl)ccc1F [F113, methyl 6-(2-chloro-4-(trifluoromethyl)phenyl)-3-fluoropicolinate] | 95 to 100% |
| COC(=O)c1cc(Cl)cc(-c2ccc(C(F)(F)F)cc2Cl)n1 [F57, Methyl 4-chloro-6-(2-chloro-4-(trifluoromethyl)phenyl)picolinate] | 0 to 29% |

Same assay, conditions: post-emergence, 336 h, KCHSC: kochia (Bassia scoparia), 140 g ai/ha, 14 days after application, read-out: Visual Growth Reduction (%) 14 Days After Application, KCHSC

| Compound | pest or weed control at 140 g/ha |
| --- | --- |
| COC(=O)c1nc(-c2ccc(C(F)(F)F)cc2Cl)ccc1F [F113, methyl 6-(2-chloro-4-(trifluoromethyl)phenyl)-3-fluoropicolinate] | 60 to 74% |
| COC(=O)c1cc(Cl)cc(-c2ccc(C(F)(F)F)cc2Cl)n1 [F57, Methyl 4-chloro-6-(2-chloro-4-(trifluoromethyl)phenyl)picolinate] | 0 to 29% |

Same assay, conditions: post-emergence, 336 h, ORYSA: rice (Oryza sativa), 140 g ai/ha, 14 days after application, read-out: Visual Growth Reduction (%) 14 Days After Application, ORYSA

| Compound | pest or weed control at 140 g/ha |
| --- | --- |
| COc1c(Cl)ccc(-c2ccc(Cl)c(C(=O)O)n2)c1F [F78, 3-chloro-6-(4-chloro-2-fluoro-3-methoxyphenyl)picolinic acid] | 0 to 29% |
| COC(=O)c1nc(-c2ccc(C(F)(F)F)cc2Cl)ccc1F [F113, methyl 6-(2-chloro-4-(trifluoromethyl)phenyl)-3-fluoropicolinate] | 30 to 44% |
| COC(=O)c1cc(Cl)cc(-c2ccc(C(F)(F)F)cc2Cl)n1 [F57, Methyl 4-chloro-6-(2-chloro-4-(trifluoromethyl)phenyl)picolinate] | 0 to 29% |

Same assay, conditions: post-emergence, 336 h, SETFA: giant foxtail (Setaria faberi), 140 g ai/ha, 14 days after application, read-out: Visual Growth Reduction (%) 14 Days After Application, SETFA

| Compound | pest or weed control at 140 g/ha |
| --- | --- |
| COc1c(Cl)ccc(-c2ccc(Cl)c(C(=O)O)n2)c1F [F78, 3-chloro-6-(4-chloro-2-fluoro-3-methoxyphenyl)picolinic acid] | 0 to 29% |
| COC(=O)c1nc(-c2ccc(C(F)(F)F)cc2Cl)ccc1F [F113, methyl 6-(2-chloro-4-(trifluoromethyl)phenyl)-3-fluoropicolinate] | 75 to 84% |
| COC(=O)c1cc(Cl)cc(-c2ccc(C(F)(F)F)cc2Cl)n1 [F57, Methyl 4-chloro-6-(2-chloro-4-(trifluoromethyl)phenyl)picolinate] | 0 to 29% |

Same assay, conditions: post-emergence, 336 h, SORVU: grain sorghum (Sorghum vulgare), 140 g ai/ha, 14 days after application, read-out: Visual Growth Reduction (%) 14 Days After Application, SORVU

| Compound | pest or weed control at 140 g/ha |
| --- | --- |
| COc1c(Cl)ccc(-c2ccc(Cl)c(C(=O)O)n2)c1F [F78, 3-chloro-6-(4-chloro-2-fluoro-3-methoxyphenyl)picolinic acid] | 0 to 29% |
| COC(=O)c1nc(-c2ccc(C(F)(F)F)cc2Cl)ccc1F [F113, methyl 6-(2-chloro-4-(trifluoromethyl)phenyl)-3-fluoropicolinate] | 85 to 94% |
| COC(=O)c1cc(Cl)cc(-c2ccc(C(F)(F)F)cc2Cl)n1 [F57, Methyl 4-chloro-6-(2-chloro-4-(trifluoromethyl)phenyl)picolinate] | 0 to 29% |

Same assay, conditions: post-emergence, 336 h, STEME: common chickweed (Stellaria media), 140 g ai/ha, 14 days after application, read-out: Visual Growth Reduction (%) 14 Days After Application, STEME

| Compound | pest or weed control at 140 g/ha |
| --- | --- |
| COc1c(Cl)ccc(-c2ccc(Cl)c(C(=O)O)n2)c1F [F78, 3-chloro-6-(4-chloro-2-fluoro-3-methoxyphenyl)picolinic acid] | 30 to 44% |
| COC(=O)c1nc(-c2ccc(C(F)(F)F)cc2Cl)ccc1F [F113, methyl 6-(2-chloro-4-(trifluoromethyl)phenyl)-3-fluoropicolinate] | 0 to 29% |
| COC(=O)c1cc(Cl)cc(-c2ccc(C(F)(F)F)cc2Cl)n1 [F57, Methyl 4-chloro-6-(2-chloro-4-(trifluoromethyl)phenyl)picolinate] | 0 to 29% |

Same assay, conditions: post-emergence, 336 h, TRZAS: wheat, spring (Triticum aestivum), 140 g ai/ha, 14 days after application, read-out: Visual Growth Reduction (%) 14 Days After Application, TRZAS

| Compound | pest or weed control at 140 g/ha |
| --- | --- |
| COc1c(Cl)ccc(-c2ccc(Cl)c(C(=O)O)n2)c1F [F78, 3-chloro-6-(4-chloro-2-fluoro-3-methoxyphenyl)picolinic acid] | 0 to 29% |
| COC(=O)c1nc(-c2ccc(C(F)(F)F)cc2Cl)ccc1F [F113, methyl 6-(2-chloro-4-(trifluoromethyl)phenyl)-3-fluoropicolinate] | 0 to 29% |
| COC(=O)c1cc(Cl)cc(-c2ccc(C(F)(F)F)cc2Cl)n1 [F57, Methyl 4-chloro-6-(2-chloro-4-(trifluoromethyl)phenyl)picolinate] | 0 to 29% |
